Measurements: patent publication US20020052317A1, “Anti-viral and anti-tumor chemotherapy by administration of erythropoeitin” (priority 2000, published 2002)

How the values were obtained:
[1] = test system: subjects treated with REBETRON for chronic hepatitis C; conditions: either ribavirin, interferon, or both agents; cited from earlier work
[2] = test system: anemic HCV infected patients receiving combination RBV/IFN alfa-2b; assay: Open-label, randomized, parallel-group study of PROCRIT once weekly versus standard of care in hepatitis C patients on ribavirin/interferon alfa-2b; assay type: in vivo, human
[3] = test system: patients co-infected with HIV and HCV; conditions: cited from earlier work
[4] = target: T1, TNFβ (lymphotoxin α) (Homo sapiens, UniProt P01374); conditions: cited from earlier work
T1 sequence (P01374 35-205): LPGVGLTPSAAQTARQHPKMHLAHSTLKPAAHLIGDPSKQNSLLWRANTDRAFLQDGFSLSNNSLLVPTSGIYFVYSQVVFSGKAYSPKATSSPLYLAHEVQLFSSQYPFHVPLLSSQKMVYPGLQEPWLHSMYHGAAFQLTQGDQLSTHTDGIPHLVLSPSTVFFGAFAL

[5] = in vivo, 5 mg/kg; cited from earlier work
[6] = last available time point vs baseline, PROCRIT 40,000 Units qw s.c., N=22

**Q.** Which “patients requiring a dose modification” value [1] does the source give for `NC(=O)c1ncn([C@@H]2O[C@H](CO)[C@@H](O)[C@H]2O)n1` [REBETOL, 1β-D-ribofuranosyl 1H-1,2,4-Triazole-3-carboxamide] here?
**A.** about 26%

**Q.** Which results are given for Epoetin alfa [PROCRIT]?
**A.** hemoglobin levels (in words) ([2]; anemic patients on Ribavirin/INF-alpha, FIG. 1): increase their hemoglobin levels to near normal levels; Hb Range ([2]; baseline, before PROCRIT, N=25): 9.1 to 12.0 g/dL; Mean Hb ([2]; baseline, before PROCRIT, N=25): 11 g/dL; Change Hb Range [2, 6]: -1.4 to 6.2 g/dL; Mean change Hb [2, 6]: 2.4 g/dL; Hb Range ([2]; last available time point, PROCRIT 40,000 Units qw s.c., N=22): 7.7 to 16.8 g/dL; Mean Hb ([2]; last available time point, analysis after 16 weeks, PROCRIT 40,000 Units qw s.c., N=22): 13.5 g/dL; patient well being ([2]; reported even before hemoglobin levels improved): demonstrated better well being; ability to maintain Ribavirin dosing ([2]; throughout the study period, FIG. 2): increased ability to maintain Ribavirin dosing; hemoglobin (Hb) value at initiation of r-HuEPO ([3]; before r-HuEPO 40,000 U once weekly): 10 g/dL; hemoglobin (Hb) value after r-HuEPO treatment ([3]; r-HuEPO 40,000 U once weekly, after a median of four weeks): 12.7 g/dL

**Q.** For “Infliximab: monoclonal antibody that blocks the biological activity of circulating TNFα”, which “neutralization of TNFβ (lymphotoxin α)” value [4] is on record?
**A.** does not neutralize

**Q.** And the “median Cmax” value [5]?
**A.** 118 µg/mL

**Q.** And the “median Vd (volume of distribution at steady state)” value [5]?
**A.** 3.0 L

**Q.** And the terminal half-life [5]?
**A.** 228 h
